Results published in patent US20080032940A1, “METHODS FOR REDUCING ANTHRACYCLINE-INDUCED TOXICITY” (priority 2006, published 2008).

Key:
[1] = tested on: male Sprague Dawley rats; assay: Echocardiography in DOX-treated rats (cardiac function test); assay type: in vivo, rat
Experimental: (§1) In a first set of experiments, male Sprague Dawley rats were divided into the following four treatment groups: (1) PBS control; (2) MitoQ (5 mg/kg, i.p., twice per week); (3) DOX (2.5 mg/kg, i.v.); and (4) DOX plus MitoQ (2.5 mg/kg DOX and 5 mg/kg MitoQ, both i.p.). All agents were administered in PBS for ten weeks. At weeks four, eight, ten and twelve, cardiac function tests were performed. Following the treatments, the rats were sacrificed and hearts were removed for histochemical and biochemical analysis. See FIG. 8 for treatment protocol
In a second set of experiments, a different mitochondria-target antioxidant was assessed, Mito-TEMPOL. Male Sprague Dawley rats were divided into the following four treatment groups: (1) PBS control; (2) Mito-TEMPOL (5 mg/kg, i.p., twice per week); (3) DOX (2.5 mg/kg, i.v.); and (4) DOX plus Mito-TEMPOL (2.5 mg/kg and 5 mg/kg Mito-TEMPOL, both i.p.). All agents were administered in PBS for ten weeks. At weeks four, eight, ten and twelve, cardiac function tests were performed. Following treatment, the rats were sacrificed and hearts were removed for histochemical and biochemical analysis.
Cardiac Function Test: Echocardiography was performed at baseline, four, eight, ten and twelve weeks following the start of treatment. Rats were anesthetized with a mixture of ketamine (75 mg/kg) and medotomidine (0.25 mg/kg). Once anesthetized, the chest was shaved and cardiac rhythm monitored using three limb leads attached to a Vivid 7 from General Electric (Waukesha, Wis.) and a M12L linear array probe.
2-D B mode imaging parameters were as follows: (1) depth, 2.5 cm.; (2) frame rate, 230 frames/second; and (3) second harmonic imaging. For the primary endpoint data, the standard short axis view at the mid-ventricular level were used. Because of the serial nature of comparative measurements, co-registration at this level was ensured by the use of papillary muscles as localizers and obtaining a circular left ventricular slice. Other standard views obtained induced short axis apical slices and short axis basal slices at the mitral valve. […] In addition, Q analysis software (General Electric) of the B mode echo images was used to measure regional radial and circumferential strain. Furthermore, diastolic function was monitored by using pulsed Doppler of the mitral inflow and aortic outflow regions in a standard apical four chamber/five chamber view, as was mitral E wave, A wave, isovolumic relaxation time and mitral E deceleration time.

[2] = tested on: caspase-3; assay: Caspase-3 activity in heart tissues of DOX-treated rats; assay type: in vivo, rat; settings: DOX treatment
Experimental: Caspase-3 Activity: Caspase-3 activity was measured with acetyl Asp-Glu-Val-Asp 7-amido-4-methlylcoumarin (Ac-DEVD-AFC), as described in a kit from Sigma Aldrich (St. Louis, Mo.). Caspase-3 hydrolyzes Ac-DEVD-AFC to release a fluorescent moiety, 7-amino-4-methylcoumarin (AMC). Briefly, treated cells were suspended in 100 μl of lysis buffer and passed through a 24-gauge needle 10 times to ensure complete lysis. The resulting lysate was centrifuged at 4° C. at 10,000 rmp. 50 μl of clear supernatant was used for the activity assay. […] The excitation and emission wavelengths of AMC are 360 nm and 460 nm respectively.
as §1
Caspase-3 was determined as described above in Example 3.

[3] = tested on: laboratory animals; settings: in vivo; cited from earlier work
[4] = tested on: tumor cell lines (LnCAP, MCF-7, SH-SY5Y and MDA-MB-231); assay: MTT assay, toxicity in tumor cell lines; assay type: cell-based, human; settings: 10 μM, MCF-7 and SH-SY5Y
From the text: In contrast, four tumor cell lines were used herein. The first tumor cell line was a human neuroblastoma cell line, SH-SY5Y, from American Type Culture Collection (ATCC; Rockville, Md.). The second tumor cell line was a human prostate cancer cell line, LnCAP, from ATCC. The third tumor cell line was a human breast cancer cell line, MCF-7, from ATCC. The fourth tumor cell line was a human metastatic breast cancer cell line, MDA-MB-231 from ATCC.
(§2) In a first set of experiments, a dose-response curve to MitoQ was measured in each of the six cell lines described above. Briefly, cells were treated with various concentrations of MitoQ for twenty-four hours. Following treatment, cellular toxicity was measured by a MTT assay as described below.
In a third set of experiments, each of the six cell lines described above were subjected to the following treatments: (1) 10 μM MitoQ; (2) 10 μM CoQ (MitoQ without the phosphonium, which served as a control); and (3) 10 μM triphenylphosphonium (TPP; MitoQ without the ubiquinone or the ubquinol moiety, which also served as a control). Following treatment, cellular toxicity was measured by the MTT assay. […]

[5] = tested on: isolated cardiomyocytes and isolated hearts; settings: cited from earlier work
[6] = tested on: H9c2 cells; assay: MTT assay, toxicity in normal cells H9c2; assay type: cell-based, rat; settings: 10 μM
Experimental: (§3) Cell lines: Two normal cell lines were used herein. The first normal cell line was a rat-derived embryonic cardiomyocyte cell line, H9c2, from […] (Manassas, Va.; Catalog No. CRL-1446). The second normal cell line was BAECs from Clonetics Corp. (San Diego, Calif.).
as §2
(§4) In a third set of experiments, each of the six cell lines described above were subjected to the following treatments: (1) 10 μM MitoQ; (2) 10 μM CoQ (MitoQ without the phosphonium, which served as a control); and (3) 10 μM triphenylphosphonium (TPP; MitoQ without the ubiquinone or the ubquinol moiety, which also served as a control). Following treatment, cellular toxicity was measured by the MTT assay.
(§5) MTT Assay: An MIT assay was performed to examine MitoQ's toxicity on normal cells and tumor cells (see Mosmann T, “Rapid colorimetric assay for cellular growth and survival: Application to proliferation and cytotoxicity assays,” J. Immunol. Meth. 65:55-63 (1983)). […] Formazon crystals formed cells were solubilized by adding 200 μl of 0.1N HCl in isopropanol, and absorbance was measured at 570 nm.

[7] = tested on: bovine aortic endothelial cells (BAEC); assay: MTT assay, toxicity in normal cells BAEC; assay type: cell-based; settings: 10 μM; BAECs
Experimental: as §3, §2, §4, §5

Compound: COc1cccc2c1C(=O)c1c(O)c3c(c(O)c1C2=O)C[C@@](O)(C(=O)CO)C[C@@H]3O[C@H]1C[C@H](N)[C@H](O)[C@H](C)O1 [DOX, doxorubicin]
- decrease of fractional shortening versus control ([1]; DOX 2.5 mg/kg, rats): 18%
- decrease of radial strain versus control ([1]; DOX 2.5 mg/kg, rats): 35%
- caspase activity in heart tissues [2]: increased with increasing DOX treatment

Compound: CC(=O)N[C@@H](CS)C(=O)O [N-acetylcysteine]
- efficacy against DOX cardiotoxicity in animals [3]: limited efficacy

Compound: Cc1c(C)c2c(c(C)c1O)CC[C@@](C)(CCC[C@H](C)CCC[C@H](C)CCCC(C)C)O2 [α-tocopherol]
- efficacy against DOX cardiotoxicity in animals [3]: limited efficacy

Compound: coenzyme Q [CoQ]
- toxicity (MTT), FIG. 4 [4]: not toxic
- DOX-induced cardiomyopathy (echocardiograms, FIG. 9A) ([1]; after 12 weeks of DOX treatment): not
- protection of left ventricular function and fractional shortening against DOX cardiotoxicity ([1]; co-administered with DOX, echocardiography): did not significantly protect
- effect on DOX-induced toxicity [5]: reversed DOX-induced toxicity
- efficacy against DOX cardiotoxicity in animals [3]: not as effective

Compound: triphenylphosphonium [TPP, reference compound]
- toxicity (MTT), FIG. 4 [4]: not toxic
- toxicity (MTT), FIG. 4 [6]: not toxic
- toxicity (MTT), FIG. 4 [7]: not toxic
